# Reference: patent publication US9708314B2, “Heterocyclic amide compound” (NISSAN CHEMICAL INDUSTRIES, LTD., priority 2013, dated 2017)
# What was measured:
# Format in all cases: in vivo
# Leptochloa chinensis = assay: Test Example 3: herbicidal effect by application to foliage (Wagner pot, water depth 0.1-0.5 cm); settings: Nineteenth Table; application to foliage; application herbicide amount 320 g/ha
# How it was run: (§1)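 Rice-field weeds and directly sown rice were grown 14 days in flooded alluvial soil (water depth 0.1–0.5 cm) at 25–30 °C in a greenhouse. An emulsion formulation diluted to the stated g/ha rate was sprayed onto stems and leaves. Effects were scored on a 0–5 scale (herbicidal ratio bands) three weeks after treatment.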
# Cyperus difformis = assay: as above; settings: Nineteenth Table; application to foliage; application herbicide amount 320 g/ha
# How it was run: as §1
# [1] = tested on: Echinochloa crus-galli var. crus-galli; assay: as above; settings: Nineteenth Table; application to foliage; application herbicide amount 320 g/ha
# How it was run: as §1
# [2] = tested on: transplanted Oryza sativa; assay: Test Example 1: effect on crop, application before weed generation in submerged conditions; settings: Application herbicide amount 320 g/ha; Seventeenth Table
# How it was run: (§2)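 Submerged pot test: alluvial soil, 4 cm water, seeds sown mixed, 2.5-leaf rice transplanted; emulsion in water applied to surface day of sowing, dose g/ha; greenhouse 25–30° C.; 3 wk; 0–5 rating.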
# [3] = tested on: Echinochloa oryzacola Vasing.; assay: Test Example 1: herbicidal activity, application before weed generation in submerged conditions; settings: Application herbicide amount 320 g/ha; Seventeenth Table
# How it was run: as §2
# Scirpus juncoides = assay: as above; settings: Application herbicide amount 320 g/ha; Seventeenth Table
# How it was run: as §2
# Monochoria vaginalis = assay: as above; settings: Application herbicide amount 320 g/ha; Seventeenth Table
# How it was run: as §2
# [4] = tested on: directly sowed Oryza sativa; assay: Test Example 3: effect on crop by application to foliage (Wagner pot, water depth 0.1-0.5 cm); settings: Nineteenth Table; application to foliage; application herbicide amount 320 g/ha
# How it was run: as §1
Compound,D (herbicidal effect grade) (Leptochloa chinensis),E (herbicidal effect grade) (Cyperus difformis),H (herbicidal effect grade) [1],a: transplanted Oryza sativa (effect on crop grade) [2],A: Echinochloa oryzicola Vasing. (herbicidal effect grade) [3],B: Scirpus juncoides (herbicidal effect grade) (Scirpus juncoides),C: Monochoria vaginalis (herbicidal effect grade) (Monochoria vaginalis),b (effect on crop grade) [4]
COc1ccccc1-c1nnc2c(C(=O)Nc3nnnn3C)ccc(C(F)(F)F)n12 [2-045],5 (Herbicidal ratio of 90% or more (almost completely withered)),5 (Herbicidal ratio of 90% or more (almost completely withered)),5 (Herbicidal ratio of 90% or more (almost completely withered)),5 (Herbicidal ratio of 90% or more (almost completely withered)),5 (Herbicidal ratio of 90% or more (almost completely withered)),5 (Herbicidal ratio of 90% or more (almost completely withered)),5 (Herbicidal ratio of 90% or more (almost completely withered)),5 (Herbicidal ratio of 90% or more (almost completely withered))
COC(=O)Cn1nnnc1NC(=O)c1ccc(C(F)(F)F)n2c(C(C)C)nnc12 [2-046],3 (Herbicidal ratio of 40% or more and less than 70%),3 (Herbicidal ratio of 40% or more and less than 70%),2 (Herbicidal ratio of 20% or more and less than 40%),0 (Herbicidal ratio of 5% or less (almost no effect)),4 (Herbicidal ratio of 70% or more and less than 90%),0 (Herbicidal ratio of 5% or less (almost no effect)),0 (Herbicidal ratio of 5% or less (almost no effect)),0 (Herbicidal ratio of 5% or less (almost no effect))
CC(C)c1nnc2c(C(=O)Nc3nnnn3C)ccc(C(F)F)n12 [2-047],5 (Herbicidal ratio of 90% or more (almost completely withered)),5 (Herbicidal ratio of 90% or more (almost completely withered)),4 (Herbicidal ratio of 70% or more and less than 90%),4 (Herbicidal ratio of 70% or more and less than 90%),5 (Herbicidal ratio of 90% or more (almost completely withered)),4 (Herbicidal ratio of 70% or more and less than 90%),5 (Herbicidal ratio of 90% or more (almost completely withered)),3 (Herbicidal ratio of 40% or more and less than 70%)
CSCCn1nnnc1NC(=O)c1ccc(C(F)(F)F)n2c(C(C)C)nnc12 [2-048],5 (Herbicidal ratio of 90% or more (almost completely withered)),5 (Herbicidal ratio of 90% or more (almost completely withered)),5 (Herbicidal ratio of 90% or more (almost completely withered)),4 (Herbicidal ratio of 70% or more and less than 90%),5 (Herbicidal ratio of 90% or more (almost completely withered)),5 (Herbicidal ratio of 90% or more (almost completely withered)),4 (Herbicidal ratio of 70% or more and less than 90%),3 (Herbicidal ratio of 40% or more and less than 70%)
CC(C)c1nnc2c(C(=O)Nc3nnnn3C)ccc(C(F)(F)C(F)(F)F)n12 [2-049],5 (Herbicidal ratio of 90% or more (almost completely withered)),5 (Herbicidal ratio of 90% or more (almost completely withered)),5 (Herbicidal ratio of 90% or more (almost completely withered)),3 (Herbicidal ratio of 40% or more and less than 70%),5 (Herbicidal ratio of 90% or more (almost completely withered)),5 (Herbicidal ratio of 90% or more (almost completely withered)),4 (Herbicidal ratio of 70% or more and less than 90%),1 (Herbicidal ratio of 5% or more and less than 20%)
CN(C)c1nnc2c(C(=O)Nc3nnnn3C)ccc(C(F)(F)F)n12 [2-051],5 (Herbicidal ratio of 90% or more (almost completely withered)),5 (Herbicidal ratio of 90% or more (almost completely withered)),5 (Herbicidal ratio of 90% or more (almost completely withered)),4 (Herbicidal ratio of 70% or more and less than 90%),5 (Herbicidal ratio of 90% or more (almost completely withered)),5 (Herbicidal ratio of 90% or more (almost completely withered)),5 (Herbicidal ratio of 90% or more (almost completely withered)),4 (Herbicidal ratio of 70% or more and less than 90%)
CSC(C)c1nnc2c(C(=O)Nc3nnnn3C)ccc(C(F)(F)F)n12 (stereo not shown) [2-052],5 (Herbicidal ratio of 90% or more (almost completely withered)),5 (Herbicidal ratio of 90% or more (almost completely withered)),5 (Herbicidal ratio of 90% or more (almost completely withered)),5 (Herbicidal ratio of 90% or more (almost completely withered)),5 (Herbicidal ratio of 90% or more (almost completely withered)),5 (Herbicidal ratio of 90% or more (almost completely withered)),5 (Herbicidal ratio of 90% or more (almost completely withered)),5 (Herbicidal ratio of 90% or more (almost completely withered))
CC(c1nnc2c(C(=O)Nc3nnnn3C)ccc(C(F)(F)F)n12)[S+](C)[O-] (stereo not shown) [2-053],5 (Herbicidal ratio of 90% or more (almost completely withered)),5 (Herbicidal ratio of 90% or more (almost completely withered)),5 (Herbicidal ratio of 90% or more (almost completely withered)),5 (Herbicidal ratio of 90% or more (almost completely withered)),5 (Herbicidal ratio of 90% or more (almost completely withered)),5 (Herbicidal ratio of 90% or more (almost completely withered)),4 (Herbicidal ratio of 70% or more and less than 90%),5 (Herbicidal ratio of 90% or more (almost completely withered))
CC(c1nnc2c(C(=O)Nc3nnnn3C)ccc(C(F)(F)F)n12)S(C)(=O)=O (stereo not shown) [2-054],5 (Herbicidal ratio of 90% or more (almost completely withered)),5 (Herbicidal ratio of 90% or more (almost completely withered)),5 (Herbicidal ratio of 90% or more (almost completely withered)),5 (Herbicidal ratio of 90% or more (almost completely withered)),5 (Herbicidal ratio of 90% or more (almost completely withered)),5 (Herbicidal ratio of 90% or more (almost completely withered)),5 (Herbicidal ratio of 90% or more (almost completely withered)),5 (Herbicidal ratio of 90% or more (almost completely withered))
Cn1nnnc1NC(=O)c1ccc(C(F)(F)F)n2c(Nc3ccccc3)nnc12 [2-056],5 (Herbicidal ratio of 90% or more (almost completely withered)),4 (Herbicidal ratio of 70% or more and less than 90%),4 (Herbicidal ratio of 70% or more and less than 90%),1 (Herbicidal ratio of 5% or more and less than 20%),4 (Herbicidal ratio of 70% or more and less than 90%),4 (Herbicidal ratio of 70% or more and less than 90%),3 (Herbicidal ratio of 40% or more and less than 70%),4 (Herbicidal ratio of 70% or more and less than 90%)
CSCCc1nnc2c(C(=O)Nc3nnnn3C)ccc(C(F)(F)F)n12 [2-057],5 (Herbicidal ratio of 90% or more (almost completely withered)),5 (Herbicidal ratio of 90% or more (almost completely withered)),5 (Herbicidal ratio of 90% or more (almost completely withered)),4 (Herbicidal ratio of 70% or more and less than 90%),4 (Herbicidal ratio of 70% or more and less than 90%),4 (Herbicidal ratio of 70% or more and less than 90%),4 (Herbicidal ratio of 70% or more and less than 90%),5 (Herbicidal ratio of 90% or more (almost completely withered))
